In patent publication US12528818B2, “Compositions and methods for inhibition of RAS” (Leidos Biomedical Research, Inc., priority 2021, dated 2026):

Tested on: pERK in NCI-H358 cells
Assay: Cell-based pERK HTRF assay (pERK inhibition in H358 cells)
Conditions: Homo sapiens, NCI-H358, 0.5 h, pERK inhibition IC50, NCI-H358 cells, 30 min incubation; read-out: PERK in H358 cell

C=CC(=O)N1C[C@@H](F)[C@@H](N(C)c2nc(OC[C@@]34CCCN3C[C@H](F)C4)nc3cc(-c4ccc(F)c5sc(N)c(C#N)c45)c(C#N)cc23)C1 [Compound 372]
IC50: < 100 nM

C=CC(=O)N1CC[C@@H](N(C)c2nc(OC[C@@]34CCCN3C[C@H](F)C4)nc3c(F)c(-c4ccc(F)c5sc(N)nc45)c(C#N)cc23)[C@H]1C [Compound 373]
IC50: 100 to 1000 nM

C=CC(=O)N1C[C@@H](F)[C@@H](N(C)c2nc(OCC34CCCN3CCC4)nc3c(F)c(-c4ccc(F)c5sc(N)c(C#N)c45)c(C(F)(F)F)cc23)C1 [Compound 374]
IC50: < 100 nM

C=CC(=O)N1C[C@@H](F)[C@@H](N(CC)c2nc(OC[C@@]34CCCN3C[C@H](F)C4)nc3cc(-c4ccc(F)c5sc(N)c(C#N)c45)c(C(F)(F)F)cc23)C1 [Compound 375]
IC50: < 100 nM

C=CC(=O)N1C[C@@H](F)[C@@H](N(CC)c2nc(OCC34CCCN3CCC4)nc3cc(-c4ccc(F)c5sc(N)c(C#N)c45)c(C(F)(F)F)cc23)C1 [Compound 376]
IC50: < 100 nM

C=CC(=O)N1C[C@@H](F)[C@@H](N(CC)c2nc(OC[C@@]34CCCN3C[C@H](F)C4)nc3cc(-c4ccc(F)c5sc(N)c(C#N)c45)ccc23)C1 [Compound 377]
IC50: < 100 nM

C=CC(=O)N1C[C@H](C)N(c2nc(OC[C@@]34CCCN3C[C@H](F)C4)nc3c(F)c(-c4ccc(F)c5sc(NC(C)=O)c(C#N)c45)c(C(F)(F)F)cc23)C[C@H]1C [Compound 378]
IC50: 100 to 1000 nM

C=CC(=O)N1C[C@@H](F)[C@@H](N(C)c2nc(OC[C@@]34CCCN3C[C@H](F)C4)nc3c(C#N)c(-c4ccc(F)c5sc(N)c(C#N)c45)c(Cl)cc23)C1 [Compound 379]
IC50: < 100 nM

C=CC(=O)N1C[C@@H](F)[C@@H](N(CC)c2nc(OC[C@@]34CCCN3C[C@H](F)C4)nc3c(C#N)c(-c4ccc(F)c5sc(N)c(C#N)c45)c(Cl)cc23)C1 [Compound 380]
IC50: < 100 nM

C=CC(=O)N1CC[C@@H](N(C)c2nc(OC[C@@]34CCCN3C[C@H](F)C4)nc3c(F)c(-c4ccc(F)c5sc(N)c(C#N)c45)c(C(F)(F)F)cc23)[C@H]1C [Compound 381, 4-(4-(((2R,3R)-1-acryloyl-2-methylpyrrolidin-3-yl)(methyl)amino)-8-fluoro-2-(((2R,7aS)-2-fluorotetrahydro-1H-pyrrolizin-7a(5H)-yl)methoxy)-6-(trifluoromethyl)quinazolin-7-yl)-2-amino-7-fluorobenzo[b]thiophene-3-carbonitrile]
IC50: < 100 nM

C=CC(=O)N1C[C@H](C)N(c2ncnc3c(F)c(-c4ccc(F)c5sc(N)c(C#N)c45)c(C(F)(F)F)cc23)C[C@H]1C [Compound 382]
IC50: < 100 nM

C=CC(=O)N1CC[C@@H](N(C)c2ncnc3c(F)c(-c4ccc(F)c5sc(N)c(C#N)c45)c(C(F)(F)F)cc23)C1 [Compound 383, 4-(4-(((R)-1-acryloylpyrrolidin-3-yl)(methyl)amino)-8-fluoro-6-(trifluoromethyl)quinazolin-7-yl)-2-amino-7-fluorobenzo[b]thiophene-3-carbonitrile]
IC50: < 100 nM

C=CC(=O)N1CC[C@@H](N(C)c2nc(OC)nc3c(F)c(-c4ccc(F)c5sc(N)c(C#N)c45)c(C(F)(F)F)cc23)C1 [Compound 384]
IC50: < 100 nM

C=CC(=O)N1C[C@H](C)N(c2nc(OC)nc3c(F)c(-c4ccc(F)c5sc(N)c(C#N)c45)c(C(F)(F)F)cc23)C[C@H]1C [Compound 385]
IC50: < 100 nM

C=CC(=O)N1C[C@@H](F)[C@@H](N(CC)c2nc(OC[C@@]34CCCN3C[C@H](F)C4)nc3cc(-c4ccc(F)c5sc(N)c(C#N)c45)c(C#N)cc23)C1 [Compound 386]
IC50: < 100 nM

C=CC(=O)N1CCC(N(C)c2nc(OC[C@@]34CCCN3C[C@H](F)C4)nc3cc(-c4ccc(F)c5sc(N)c(C#N)c45)c(C#N)cc23)[C@H]1C (stereo partly drawn) [Compound 387, 4-((1-acryloyl-2-methylpyrrolidin-3-yl)(methyl)amino)-7-(2-amino-3-cyano-7-fluorobenzo[b]thiophen-4-yl)-2-(((2R,7aS)-2-fluorotetrahydro-1H-pyrrolizin-7a(5H)-yl)methoxy)quinazoline-6-carbonitrile]
IC50: < 100 nM

C=CC(=O)N1CCC(N(C)c2nc(OC[C@@]34CCCN3C[C@H](F)C4)nc3c(C#N)c(-c4ccc(F)c5sc(N)c(C#N)c45)c(Cl)cc23)[C@H]1C (stereo partly drawn) [Compound 388, 4-((1-acryloyl-2-methylpyrrolidin-3-yl)(methyl)amino)-7-(2-amino-3-cyano-7-fluorobenzo[b]thiophen-4-yl)-6-chloro-2-(((2R,7aS)-2-fluorotetrahydro-1H-pyrrolizin-7a(5H)-yl)methoxy)quinazoline-8-carbonitrile]
IC50: < 100 nM

C=CC(=O)N1CCC(N(C)c2nc(OC[C@@]34CCCN3C[C@H](F)C4)nc3cc(-c4ccc(F)c5sc(N)c(C#N)c45)ccc23)[C@H]1COC (stereo partly drawn) [Compound 389, 4-(4-((1-acryloyl-2-(methoxymethyl)pyrrolidin-3-yl)(methyl)amino)-2-(((2R,7aS)-2-fluorotetrahydro-1H-pyrrolizin-7a(5H)-yl)methoxy)quinazolin-7-yl)-2-amino-7-fluorobenzo[b]thiophene-3-carbonitrile]
IC50: < 100 nM

C=CC(=O)N1CC[C@@H](N(C)c2nc(OC[C@@]34CCCN3C[C@H](F)C4)nc3cc(-c4ccc(F)c5sc(N)c(C#N)c45)c(F)cc23)[C@H]1C [Compound 390, 4-(4-((1-acryloyl-2-methylpyrrolidin-3-yl)(methyl)amino)-6-fluoro-2-(((2R,7aS)-2-fluorotetrahydro-1H-pyrrolizin-7a(5H)-yl)methoxy)quinazolin-7-yl)-2-amino-7-fluorobenzo[b]thiophene-3-carbonitrile]
IC50: < 100 nM

C=CC(=O)N1CC[C@@H](N(C)c2nc(OC[C@@]34CCCN3C[C@H](F)C4)nc3cc(-c4ccc(F)c5sc(N)c(C#N)c45)c(F)cc23)[C@H]1COC [Compound 391]
IC50: < 100 nM

C=CC(=O)N1CCC(N(CC)c2nc(OC[C@@H]3C[C@@H](OC)CN3C)nc3c(F)c(-c4ccc(F)c5sc(N)c(C#N)c45)c(C(F)(F)F)cc23)[C@H]1C (some centres unmarked) [Compound 392]
IC50: < 100 nM

C=CC(=O)N1CC[C@@H](N(C)c2nc(OC[C@@]34CCCN3C[C@H](F)C4)nc3cc(-c4ccc(F)c5sc(N)c(C#N)c45)c(C#N)cc23)[C@H]1COC [Compound 393]
IC50: < 100 nM

C=CC(=O)N1CCC(N(C)c2nc(OC[C@@]34CCCN3C[C@H](F)C4)nc3c(C#N)c(-c4ccc(F)c5sc(N)c(C#N)c45)ccc23)[C@H]1COC (some centres unmarked) [Compound 394]
IC50: 100 to 1000 nM

C=CC(=O)N1CC[C@@H](N(C)c2nc(OC[C@@]34CCCN3C[C@H](F)C4)nc3c(F)c(-c4ccc(F)c5sc(N)c(C#N)c45)c(Cl)cc23)[C@H]1C [Compound 395, 4-(4-((1-acryloyl-2-methylpyrrolidin-3-yl)(methyl)amino)-6-chloro-8-fluoro-2-(((2R,7aS)-2-fluorotetrahydro-1H-pyrrolizin-7a(5H)-yl)methoxy)quinazolin-7-yl)-2-amino-7-fluorobenzo[b]thiophene-3-carbonitrile]
IC50: < 100 nM

C=CC(=O)N1CCC(N(CC)c2nc(OC[C@@H]3CCCN3C)nc3c(F)c(-c4ccc(F)c5sc(N)c(C#N)c45)c(C(F)(F)F)cc23)[C@H]1C (some centres unmarked) [Compound 396]
IC50: < 100 nM

C=CC(=O)N1CCC(N(C)c2nc(OC[C@@H]3C[C@@H](F)CN3C)nc3c(F)c(-c4ccc(F)c5sc(N)c(C#N)c45)c(C(F)(F)F)cc23)[C@H]1C (some centres unmarked) [Compound 399]
IC50: < 100 nM
